Here are results for 24 compounds from patent US20240327392A1, “HETEROCYCLOALKYL-SUBSTITUTED POLYHETEROAZOLE DERIVATIVES AS MEDICAMENTS FOR TREATING AND/OR PREVENTING RS VIRUS INFECTIONS” (ALBIUS SCIENCES ALPHA PRIVATE LIMITED, priority 2021, published 2024).

Some results are limits rather than exact numbers.

The test system of one assay is human RS virus A2 strain. The assay can be described thus: In vitro test for anti-RS virus proliferation inhibitory activity (quantitative RT-PCR of RS virus RNA copy number in infected Vero cells). In kind it is cell-based. To be noted: 72 h; Vero cells infected with human RS virus A2 strain, 3 days of incubation, RS virus N gene RNA copy number by quantitative RT-PCR; read-out: Anti-RS virus Activity. In short, it runs like this: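 Vero cells infected with RSV A2 (1.7×10^4 TCID50/mL in inoculum mix) with compound in 10% FCS EMEM, 3 days at 37 °C, 5% CO2. Lysate viral N-gene RNA quantified by one-step SYBR qRT-PCR; copy number by comparative Ct relative to untreated infected cells.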
Regarding `CC(C)(C)O[C@@H]1C[C@@H](c2nc(CCCc3ccccc3)no2)N(S(=O)(=O)C2CCCCC2)C1` [Compound 4B, 3-(3-phenylpropyl)-5-[(2S,4R)-4-tert-butoxy-1-cyclohexylsulfonyl-pyrrolidin-2-yl]-1,2,4-oxadiazole], the IC50 was less than 10 µM.
On the same count and under the same terms, next, `O=S(=O)(c1ccccc1)N1CCCC[C@H]1c1nc(CCCc2ccccc2)no1` [Compound 2D, 3-(3-phenylpropyl)-5-[(2S)-1-benzenesulfonylpiperidin-2-yl]-1,2,4-oxadiazole]: less than 10 µM; `O=S(=O)(C1CCCCC1)N1CCCC[C@H]1c1nc(CCCc2ccccc2)no1` [Compound 2B, 3-(3-phenylpropyl)-5-[(2S)-1-cyclohexylsulfonylpiperidin-2-yl]-1,2,4-oxadiazole]: less than 10 µM.

Still in this assay, the particulars now being: 72 h; Vero cells infected with human RS virus A2 strain, 3 days of incubation, RS virus RNA copy number by quantitative RT-PCR; read-out: Anti-RS virus Activity.
For `CC(C)CC(=O)N1CCCC[C@H]1c1nc(CCCc2ccccc2)no1` [Compound 2Q, (S)-3-Methyl-1-(2-(3-(3-phenylpropyl)-1,2,4-oxadiazol-5-yl)piperidin-1-yl)butan-1-one], the IC50 was less than 10 µM.
Same read-out and setting: for `CC(C)(C)[S+]([O-])N1CCCC[C@H]1c1nc(CCCc2ccccc2)no1` (single isomer, unassigned) [2W′] the value was 10 to 50 µM.
The same measure, in the same setting: next, `O=C(c1ccccc1)N1CCC[C@H]1c1nc(CCCc2ccccc2)no1` [Compound 1S, (S)-Phenyl(2-(3-(3-phenylpropyl)-1,2,4-oxadiazol-5-yl)pyrrolidin-1-yl)methanone]: less than 10 µM; `CC(C)[C@@H]1CC[C@@H](C)C[C@H]1OC(=O)N1CCC[C@H]1c1nc(CCCc2ccccc2)no1` [Compound 1N, (−)-menthyl (S)-2-(3-(3-phenylpropyl)-1,2,4-oxadiazol-5-yl) pyrrolidine-1-carboxylate]: 10 to 50 µM; `O=S(=O)(c1ccc(F)cc1)N1CC2(CC2)C[C@H]1c1nc(CCCc2ccccc2)no1` [Compound 5AJ, (S)-5-(5-((4-fluorophenyl)sulfonyl)-5-azaspiro[2.4]heptan-6-yl)-3-(3-phenylpropyl)-1,2,4-oxadiazole]: less than 10 µM.
Same read-out and setting: for `CS(=O)(=O)N1CC2(CC2)C[C@H]1c1nc(CCCc2ccccc2)no1` [Compound 5C, 3-(3-phenylpropyl)-5-{(6S)-5-methanesulfonyl-5-azaspiro[2.4]hept-6-yl}-1,2,4-oxadiazole] the value was greater than 50 µM; for `CC(C)(C)OC(=O)N1CCCC[C@H]1c1nnc(CCc2ccccc2)o1` [Compound 17-1, Tert-butyl (S)-2-(5-phenethyl-1,3,4-oxadiazol-2-yl) piperidine-1-carboxylate], less than 10 µM.
With `CC(C)(C)OC(=O)N1CCC(S(=O)(=O)N2CC(CC3CCC3)CC2c2nc(CCCc3ccccc3)no2)CC1` (stereo not drawn) [Compound 6AO], the IC50 was greater than 50 µM.
On the same count and under the same terms, for `O=S(=O)(c1ccccc1)N1CC(CC2CCC2)CC1c1nc(CCCc2ccccc2)no1` (stereo not drawn) [Compound 6D, 3-(3-phenylpropyl)-5-(1-benzenesulfonyl-4-cyclobutylmethylpyrrolidin-2-yl)-1,2,4-oxadiazole] the value was less than 10 µM.
The same measure, in the same setting: next, `CC(C)(C)NC(=O)N1C[C@H]2CC[C@]1(c1nc(CCc3ccncc3)no1)CC2` [Compound 13H, (1s, 4s)-N-(tert-butyl)-1-(3-(2-(pyridin-4-yl)ethyl)-1,2,4-oxadiazol-5-yl)-2-azabicyclo[2.2.2]octane-2-carboxamide]: greater than 50 µM; `O=S(=O)(C1CCCCC1)N1CC(CC2CCC2)CC1c1nc(CCCc2ccccc2)no1` (stereo not drawn) [Compound 6B, 3-(3-phenylpropyl)-5-(1-cyclohexylsulfonyl-4-cyclobutylmethylpyrrolidin-2-yl)-1,2,4-oxadiazole]: less than 10 µM.
As to `CC(C)(C)OC(=O)N1CCCC[C@H]1c1nnc(CCCc2ccccc2)o1` [Compound 18-1, Tert-butyl (S)-2-(5-(3-phenylpropyl)-1,3,4-oxadiazol-2-yl) piperidine-1-carboxylate], the IC50 was less than 10 µM.
Still for that read-out and setting: next, `CS(=O)(=O)N1C[C@H](F)C[C@H]1c1nc(CCCc2ccccc2)no1` [Compound 8C, 3-(3-phenylpropyl)-5-[(2S,4R)-1-methanesulfonyl-4-fluoropyrrolidin-2-yl]-1,2,4-oxadiazole]: greater than 50 µM; `O=S(=O)(C1CCOCC1)N1CC2(CC2)C[C@H]1c1nc(CCCc2ccccc2)no1` [Compound 5AP, (S)-3-(3-phenylpropyl)-5-(5-((tetrahydro-2H-pyran-4-yl)sulfonyl)-5-azaspiro[2.4]heptan-6-yl)-1,2,4-oxadiazole]: 10 to 50 µM.
Regarding `O=C(NCc1noc([C@@H]2CCCN2S(=O)(=O)C2CCCCC2)n1)c1cccc2ccccc12` [Compound 11B, 3-[(1-naphthoylamino)methyl]-5-[(2S)-1-cyclohexylsulfonylpyrrolidin-2-yl]-1,2,4-oxadiazole], the IC50 is 10 to 50 µM.
For `O=S(=O)(C1CCOCC1)N1C[C@H](c2ccccc2)C[C@H]1c1nc(CCCc2ccccc2)no1` [Compound 7AP, 5-((2S,4S)-4-phenyl1-((tetrahydro-2H-pyran-4-yl)sulfonyl)pyrrolidin-2-yl)-3-(3-phenylpropyl)-1,2,4-oxadiazole], the IC50 is less than 10 µM.
The same measure, in the same setting: next, `O=S(=O)(C1CCCCC1)N1CC(c2ccccc2)C[C@H]1c1nc(CCCc2ccccc2)no1` (stereo in doubt) [Compound 7B, 3-(3-Phenylpropyl)-5-[(2S,4S)-1-cyclohexylsulfonyl-4-phenylpyrrolidin-2-yl]-1,2,4-oxadiazole]: less than 10 µM; `COC(=O)c1nc([C@@H]2CCCCN2S(=O)(=O)C2CCCCC2)oc1C` [Compound 32B, Methyl (S)-2-(1-(cyclohexylsulfonyl)piperidin-2-yl)-5-methyloxazole-4-carboxylate]: 10 to 50 µM; `CN(C)c1ccc(S(=O)(=O)N2CC3(CC3)C[C@H]2c2nc(CCCc3ccccc3)no2)cc1` [Compound 5AK, (S)-N,N-dimethyl-4-((6-(3-(3-phenylpropyl)-1,2,4-oxadiazole-5-yl)-5-azaspiro[2.4]heptan-5-yl)sulfonyl)aniline]: less than 10 µM.
On the same count and under the same terms, for `CS(=O)(=O)N1CC(CC2CCC2)CC1c1nc(CCCc2ccccc2)no1` (stereo not drawn) [Compound 6C, 3-(3-phenylpropyl)-5-(1-methanesulfonyl-4-cyclobutylmethylpyrrolidin-2-yl)-1,2,4-oxadiazole] the value was less than 10 µM.

The same assay, now with this note: Vero, 72 h, read-out: Anti-RS virus Activity.
Turning to `S=C(NCc1ccccc1)N1C[C@H](c2ccccc2)C[C@H]1c1nc(CCCc2ccccc2)no1` [Compound 7AR, (2S,4S)—N-Benzyl-4-phenyl-2-(3-(3-phenylpropyl)-1,2,4-oxadiazol-5-yl) pyrrolidine-1-carbothioamide], the IC50 fell in the range of 10 to 50 µM.
